Read-outs that look alike come from different tables or passages of the source.
Columns and labels:
Phytophthora capsici = test: Activity against Phytophthora capsici, growth inhibition in nutrient broth (microtiter plate); assay type: cell-based
Experimental: Conidia of the fungus from cryogenic storage are directly mixed into nutrient broth (PDB potato dextrose broth). After placing a (DMSO) solution of test compound into a microtiter plate (96-well format), the nutrient broth containing the fungal spores is added. […] Table B4 to B21 gives the mean percent control relative to untreated.

Phytophthora infestans [1] = assay type: in vivo; settings: Table B3; Chlorothalonil 1000 gai/ha; leaf area, four days after final application
Phytophthora infestans [2] = assay type: in vivo
Plasmopara viticola = test: Field activity against Plasmopara viticola on grapevine; assay type: in vivo; settings: Table B2; Mandipropamid 93.75 gai/ha; bunches, ten days after sixth application
Description: Merlot grapevines were cultivated in rows with 1 m between plants within the row, and 2 m spaces between rows. Treatment plots were defined with an 8 m^2 vertical area. The trial consisted of three replicates of the treatment list, with the positions of each treatment plot randomised within the replicate.
Test compounds were formulated and applied to the relevant treatment plots, using a backpack sprayer with a flat fan nozzle. The first application was made when the majority of plants were at growth stage BBCH 15 and following applications at 10-14 day intervals through to growth stage BBCH 79.
The first symptoms of the target pathogen Plasmopara viticola were observed between the second and third applications. Plants outside the trial area were inoculated to increase the disease pressure, but infection processes within the trial plots were natural. […]
Ten days after the sixth application, at growth stage BBCH 79, the fruit was assessed for infection by Plasmopara viticola. 50 bunches per plot were assessed, the scores given in table B2 are percent disease control relative to untreated, based on the mean percentage of bunches showing symptoms of infection across all three replicates of a treatment.

[3] = Table B20, Iprovalicarb 0.6250 ppm, no A-1.2 rate printed in the row

In the case of CCO[PH](=O)[O-].CCO[PH](=O)[O-].CCO[PH](=O)[O-].[Al+3] [Fosethyl-Al], the “% disease control” value (Phytophthora capsici; Table B21, Fosethyl-Al 0.3125 ppm) is reported as 8%, the “% disease control” value (Phytophthora capsici; Table B21, Fosethyl-Al 0.6250 ppm) is reported as 14% and the “% disease control” value (Phytophthora capsici; Table B21, Fosethyl-Al 1.2500 ppm) is reported as 14%.
In the case of N#Cc1sc2c(=O)c3ccccc3c(=O)c=2sc1C#N [Dithianon], the inhibition of growth at 0.125 ppm (Phytophthora capsici; Phytophthora capsici, Table B6, Dithianon 0.1250 ppm, read-out: % disease control) is reported as 0%, the inhibition of growth at 0.25 ppm (Phytophthora capsici; Phytophthora capsici, Table B6, Dithianon 0.2500 ppm, read-out: % disease control) is reported as 7% and the inhibition of growth at 0.5 ppm (Phytophthora capsici; Phytophthora capsici, Table B6, Dithianon 0.5000 ppm, read-out: % disease control) is reported as 8%. It also gave an inhibition of growth at 1 ppm (Phytophthora capsici; Phytophthora capsici, Table B6, Dithianon 1.0000 ppm, read-out: % disease control) of 25%.
O=C(NCc1ncc(C(F)(F)F)cc1Cl)c1c(Cl)cccc1Cl [Fluopicolid] was tested, and the “% disease control” value (Phytophthora capsici; Table B15, Fluopicolid 0.0625 ppm) was 6%, the “% disease control” value (Phytophthora capsici; Table B15, Fluopicolid 0.1250 ppm) was 59% and the “% disease control” value (Phytophthora capsici; Table B15, Fluopicolid 0.2500 ppm) was 69%. For the same molecule, the “% disease control” value (Phytophthora capsici; Table B15, Fluopicolid 0.5000 ppm) was 79%.
For N#Cc1c(Cl)c(Cl)c(Cl)c(C#N)c1Cl [Chlorothalonil], the “% disease control relative to untreated” value (Phytophthora infestans [1]) was 4.3%, the inhibition of growth at 0.0781 ppm (Phytophthora capsici; Phytophthora capsici, Table B5, Chlorothalonil 0.0781 ppm, read-out: % disease control) was 24% and the inhibition of growth at 0.1563 ppm (Phytophthora capsici; Phytophthora capsici, Table B5, Chlorothalonil 0.1563 ppm, read-out: % disease control) was 24%. The inhibition of growth at 0.3125 ppm (Phytophthora capsici; Phytophthora capsici, Table B5, Chlorothalonil 0.3125 ppm, read-out: % disease control) was 23%, the inhibition of growth at 0.625 ppm (Phytophthora capsici; Phytophthora capsici, Table B5, Chlorothalonil 0.6250 ppm, read-out: % disease control) was 64% and the “% disease control” value (Phytophthora infestans [2]; Table B1.3, Chlorothalonil 60 ppm) was 6%.
COCC(=O)N(c1c(C)cccc1C)[C@H](C)C(=O)OC [Mefenoxam] was tested, and the “% disease control” value (Phytophthora capsici; Table B8, Mefenoxam 0.0031 ppm) was 0%, the “% disease control” value (Phytophthora capsici; Table B8, Mefenoxam 0.0063 ppm) was 13% and the “% disease control” value (Phytophthora capsici; Table B8, Mefenoxam 0.0125 ppm) was 13%. For the same molecule, the “% disease control” value (Phytophthora capsici; Table B8, Mefenoxam 0.0250 ppm) was 28% and the “% disease control” value (Phytophthora capsici; Table B8, Mefenoxam 0.0500 ppm) was 42%.
O=C1c2ccccc2C(=O)N1SC(Cl)(Cl)Cl [Folpet] gave an inhibition of growth at 0.0313 ppm (Phytophthora capsici; Phytophthora capsici, Table B12, Folpet 0.0313 ppm, read-out: % disease control) of 17%, an inhibition of growth at 0.0625 ppm (Phytophthora capsici; Phytophthora capsici, Table B12, Folpet 0.0625 ppm, read-out: % disease control) of 11% and an inhibition of growth at 0.125 ppm (Phytophthora capsici; Phytophthora capsici, Table B12, Folpet 0.1250 ppm, read-out: % disease control) of 19%. The inhibition of growth at 0.25 ppm (Phytophthora capsici; Phytophthora capsici, Table B12, Folpet 0.2500 ppm, read-out: % disease control) was 19%, the “% disease control” value (Phytophthora infestans [2]; Table B1.2, Folpet 20 ppm) was 0% and the “% disease control” value (Phytophthora infestans [2]; Table B1.2, Folpet 60 ppm) was 33%.
In the case of CO/C=C(/C(=O)OC)c1ccccc1Oc1cc(Oc2ccccc2C#N)ncn1 [Azoxystrobin], the “% disease control” value (Phytophthora capsici; Table B7, Azoxystrobin 0.0313 ppm) is reported as 23%, the “% disease control” value (Phytophthora capsici; Table B7, Azoxystrobin 0.0625 ppm) is reported as 23% and the “% disease control” value (Phytophthora capsici; Table B7, Azoxystrobin 0.1250 ppm) is reported as 62%.
Cc1c(Br)c2ccc(F)cc2n1S(=O)(=O)c1ncn(S(=O)(=O)N(C)C)n1 [Amisulbrom] was tested, and the “% disease control” value (Phytophthora capsici; Table B16, Amisulbrom 0.0063 ppm) was 5%, the “% disease control” value (Phytophthora capsici; Table B16, Amisulbrom 0.0125 ppm) was 6% and the “% disease control” value (Phytophthora capsici; Table B16, Amisulbrom 0.0500 ppm) was 24%. For the same molecule, the “% disease control” value (Phytophthora capsici; Table B16, Amisulbrom 0.1000 ppm) was 35%.
Molecule CCC(C)(NC(=O)c1cc(Cl)c(C)c(Cl)c1)C(=O)CCl (stereo not shown) [Zoxamid] has an inhibition of growth at 0.0063 ppm (Phytophthora capsici; Phytophthora capsici, Table B14, Zoxamid 0.0063 ppm, read-out: % disease control) of 19%, an inhibition of growth at 0.0125 ppm (Phytophthora capsici; Phytophthora capsici, Table B14, Zoxamid 0.0125 ppm, read-out: % disease control) of 40% and an inhibition of growth at 0.025 ppm (Phytophthora capsici; Phytophthora capsici, Table B14, Zoxamid 0.0250 ppm, read-out: % disease control) of 48%. The inhibition of growth at 0.05 ppm (Phytophthora capsici; Phytophthora capsici, Table B14, Zoxamid 0.0500 ppm, read-out: % disease control) was 65%.
C[C@@]1(c2ccc(Oc3ccccc3)cc2)OC(=O)N(Nc2ccccc2)C1=O (racemic) [Famoxadone] gave an inhibition of growth at 0.1563 ppm (Phytophthora capsici; Phytophthora capsici, Table B19, Famoxadone 0.1563 ppm, read-out: % disease control) of 16%, an inhibition of growth at 0.3125 ppm (Phytophthora capsici; Phytophthora capsici, Table B19, Famoxadone 0.3125 ppm, read-out: % disease control) of 16% and an inhibition of growth at 0.625 ppm (Phytophthora capsici; Phytophthora capsici, Table B19, Famoxadone 0.6250 ppm, read-out: % disease control) of 16%. It also gave an inhibition of growth at 1.25 ppm (Phytophthora capsici; Phytophthora capsici, Table B19, Famoxadone 1.2500 ppm, read-out: % disease control) of 16%, an inhibition of growth at 2.5 ppm (Phytophthora capsici; Phytophthora capsici, Table B19, Famoxadone 2.5000 ppm, read-out: % disease control) of 16% and an inhibition of growth at 5 ppm (Phytophthora capsici; Phytophthora capsici, Table B19, Famoxadone 5.0000 ppm, read-out: % disease control) of 25%.
CSC1=N[C@@](C)(c2ccccc2)C(=O)N1Nc1ccccc1 [Fenamidone] gave an inhibition of growth at 0.0031 ppm (Phytophthora capsici; Phytophthora capsici, Table B18, Fenamidone 0.0031 ppm, read-out: % disease control) of 12%, an inhibition of growth at 0.0063 ppm (Phytophthora capsici; Phytophthora capsici, Table B18, Fenamidone 0.0063 ppm, read-out: % disease control) of 4% and an inhibition of growth at 0.0125 ppm (Phytophthora capsici; Phytophthora capsici, Table B18, Fenamidone 0.0125 ppm, read-out: % disease control) of 41%. It also gave an inhibition of growth at 0.025 ppm (Phytophthora capsici; Phytophthora capsici, Table B18, Fenamidone 0.0250 ppm, read-out: % disease control) of 54%.
Cc1ccc(C(C)NC(=O)[C@@H](NC(=O)OC(C)C)C(C)C)cc1 (stereo partly shown) [Iprovalicarb] was tested, and the “% disease control” value (Phytophthora capsici; [3]) was 91%, the “Expected action (Colby)” value (Phytophthora capsici; [3]) was 66% and the “% disease control” value (Phytophthora capsici; Table B20, Iprovalicarb 1.2500 ppm) was 18%. For the same molecule, the “% disease control” value (Phytophthora capsici; Table B20, Iprovalicarb 2.5000 ppm) was 0%.
COc1ccc(C(=CC(=O)N2CCOCC2)c2ccc(Cl)cc2)cc1OC [Dimetomorph] gave an inhibition of growth at 0.0031 ppm (Phytophthora capsici; Phytophthora capsici, Table B10, Dimetomorph 0.0031 ppm, read-out: % disease control) of 0%, an inhibition of growth at 0.0063 ppm (Phytophthora capsici; Phytophthora capsici, Table B10, Dimetomorph 0.0063 ppm, read-out: % disease control) of 14% and an inhibition of growth at 0.0125 ppm (Phytophthora capsici; Phytophthora capsici, Table B10, Dimetomorph 0.0125 ppm, read-out: % disease control) of 0%. It also gave an inhibition of growth at 0.1 ppm (Phytophthora capsici; Phytophthora capsici, Table B10, Dimetomorph 0.1000 ppm, read-out: % disease control) of 28%.
O=[N+]([O-])c1cc(C(F)(F)F)c(Cl)c([N+](=O)[O-])c1Nc1ncc(C(F)(F)F)cc1Cl [Fluazinam] gave an inhibition of growth at 0.0625 ppm (Phytophthora capsici; Phytophthora capsici, Table B11, Fluazinam 0.0625 ppm, read-out: % disease control) of 4%, an inhibition of growth at 0.125 ppm (Phytophthora capsici; Phytophthora capsici, Table B11, Fluazinam 0.1250 ppm, read-out: % disease control) of 10% and an inhibition of growth at 0.25 ppm (Phytophthora capsici; Phytophthora capsici, Table B11, Fluazinam 0.2500 ppm, read-out: % disease control) of 0%. It also gave an inhibition of growth at 0.5 ppm (Phytophthora capsici; Phytophthora capsici, Table B11, Fluazinam 0.5000 ppm, read-out: % disease control) of 14%.
In the case of C#CCOc1ccc(CCNC(=O)C(OCC#C)c2ccc(Cl)cc2)cc1OC (stereo not shown) [Mandipropamid], the “% disease control” value (Phytophthora capsici; Table B9, Mandipropamid 0.0003 ppm) is reported as 16%, the “% disease control” value (Phytophthora capsici; Table B9, Mandipropamid 0.0006 ppm) is reported as 0% and the “% disease control” value (Phytophthora capsici; Table B9, Mandipropamid 0.0012 ppm) is reported as 0%. For the same molecule, the “% disease control” value (Phytophthora capsici; Table B9, Mandipropamid 0.0025 ppm) was 17%, the “% disease control” value (Phytophthora capsici; Table B9, Mandipropamid 0.0050 ppm) was 13% and the “% disease control” value (Phytophthora capsici; Table B9, Mandipropamid 0.0100 ppm) was 15%. The “% disease control” value (Phytophthora infestans [2]; Table B1.1, Mandipropamid 0.06 ppm) was 0%, the “% disease control” value (Phytophthora infestans [2]; Table B1.1, Mandipropamid 0.2 ppm) was 0% and the “% disease control” value (Phytophthora infestans [2]; Table B1.1, Mandipropamid 0.6 ppm) was 3%. The “% disease control relative to untreated” value (Plasmopara viticola) was 17.3%.
For CCCCCCCCc1c(CC)nc2ncnn2c1N [Ametoctradin], the “% disease control” value (Phytophthora capsici; Table B17, Ametoctradin 0.0063 ppm) was 8%, the “% disease control” value (Phytophthora capsici; Table B17, Ametoctradin 0.0125 ppm) was 8% and the “% disease control” value (Phytophthora capsici; Table B17, Ametoctradin 0.0250 ppm) was 13%. For the same molecule, the “% disease control” value (Phytophthora capsici; Table B17, Ametoctradin 0.0500 ppm) was 30%.
CCNC(=O)NC(=O)/C(C#N)=N/OC [Cymoxanil] was tested, and the inhibition of growth at 0.0625 ppm (Phytophthora capsici; Phytophthora capsici, Table B13, Cymoxanil 0.0625 ppm, read-out: % disease control) was 0%, the inhibition of growth at 0.125 ppm (Phytophthora capsici; Phytophthora capsici, Table B13, Cymoxanil 0.1250 ppm, read-out: % disease control) was 10% and the inhibition of growth at 0.25 ppm (Phytophthora capsici; Phytophthora capsici, Table B13, Cymoxanil 0.2500 ppm, read-out: % disease control) was 0%. For the same molecule, the inhibition of growth at 0.5 ppm (Phytophthora capsici; Phytophthora capsici, Table B13, Cymoxanil 0.5000 ppm, read-out: % disease control) was 11%, the inhibition of growth at 1 ppm (Phytophthora capsici; Phytophthora capsici, Table B13, Cymoxanil 1.0000 ppm, read-out: % disease control) was 8% and the inhibition of growth at 2 ppm (Phytophthora capsici; Phytophthora capsici, Table B13, Cymoxanil 2.0000 ppm, read-out: % disease control) was 36%.
Mancozeb was tested, and the “% disease control” value (Phytophthora capsici; Table B4, Mancozeb 0.3125 ppm) was 3%, the “% disease control” value (Phytophthora capsici; Table B4, Mancozeb 0.6250 ppm) was 1% and the “% disease control” value (Phytophthora capsici; Table B4, Mancozeb 1.2500 ppm) was 0%. For the same molecule, the “% disease control” value (Phytophthora capsici; Table B4, Mancozeb 2.5000 ppm) was 0%, the “% disease control” value (Phytophthora capsici; Table B4, Mancozeb 5.0000 ppm) was 1% and the “% disease control” value (Phytophthora capsici; Table B4, Mancozeb 10.0000 ppm) was 1%. The “% disease control” value (Phytophthora capsici; Table B4, Mancozeb 20.0000 ppm) was 0%.

Reference: patent US10111433B2 (priority 2014, dated 2018)
